What was measured:
[1] = target: T1, CPP32 (Homo sapiens, UniProt P42574); test: Fluorometric enzyme assay, CPP32; format: biochemical; settings: recombinant CPP32, 37° C., 30 minutes
T1 construct: made in house; host or cells: Sf9 insect cells, baculovirus vector
T1 sequence (P42574 29-175 limits assumed): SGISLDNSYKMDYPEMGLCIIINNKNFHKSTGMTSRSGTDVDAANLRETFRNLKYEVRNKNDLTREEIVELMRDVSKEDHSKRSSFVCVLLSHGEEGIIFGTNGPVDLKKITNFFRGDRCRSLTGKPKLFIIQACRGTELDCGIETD
Procedure: (§1) The activities of Cbz-Val-Asp(OMe)-CH2F and Cbz-Val-Asp-CH2F (free acid) as inhibitors of CPP32, ICE and cathepsin B were measured in a fluorometric enzyme assay. Recombinant CPP32 protein and ICE protein were prepared by expressing DNA clones encoding these enzymes in an insect host cell (sf9 cells) using baculovirus as the vector. See, Webb, N.R. et al., “Expression of proteins using recombinant Baculovirus,” Techniques 2:173-188 (1990). Preparations of native cathepsin were acquired from a commercial source. Enzyme activity was measured using synthetic peptide substrates attached to a fluorogenic leaving group. Cleavage of the synthetic substrate by the enzyme results in a fluorescent signal which is read in a spectrofluorometer or in a fluorometric microtiter plate reader.
CPP32 activity was measured using the following buffer conditions: 100 mM HEPES pH 7.5, with 10% sucrose, 1% CHAPS, 5 mM glutathione, and 5 μM peptide substrate. The peptide substrate consisted of an oligomer with the sequence Asp-Glu-Val-Asp (SEQ ID NO:1) with the fluorogenic compound aminomethylcoumarin conjugated to the C-terminus. The assay for enzyme activity was typically carried out at 37° C. for 30 minutes.

[2] = target: T2, ICE (Homo sapiens, UniProt P29466); test: Fluorometric enzyme assay, ICE; format: biochemical; settings: recombinant ICE
T2 construct: made in house; host or cells: Sf9 insect cells, baculovirus vector
T2 sequence (P29466 120-297 limits assumed): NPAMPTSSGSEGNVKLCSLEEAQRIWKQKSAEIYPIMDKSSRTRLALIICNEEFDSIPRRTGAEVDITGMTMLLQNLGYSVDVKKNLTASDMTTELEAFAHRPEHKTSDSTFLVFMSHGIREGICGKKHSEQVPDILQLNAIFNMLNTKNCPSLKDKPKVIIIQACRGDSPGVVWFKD
Procedure: as §1

[3] = target: T3, Cathepsin B (Homo sapiens, UniProt P07858); test: Fluorometric enzyme assay, cathepsin B; format: biochemical; settings: native cathepsin, commercial source
T3 construct: Preparations of native cathepsin were acquired from a commercial source; purchased
Procedure: as §1

[4] = test system: Factor Xa; test: Protease inhibition, Factor Xa; format: biochemical
Excerpt: (§2) Table I lists the IC50 of Cbz-Val-Asp(OMe)-CH2F and Cbz-Val-Asp-CH2F (free acid) for CPP32 and other proteases.

[5] = target: Thrombin (Homo sapiens, UniProt P00734); test: Protease inhibition, thrombin; format: biochemical
Excerpt: as §2

[6] = target: T4, Caspase-7 (Homo sapiens, UniProt P55210); test: Recombinant caspase assay with Ac-DEVD-AMC, caspase-7; format: biochemical; settings: 10 μM Ac-DEVD-AMC, 30 minutes at 37° C.
T4 construct: purchased PharMington (PharMingen, a Becton division company, San Diego, Calif.)
T4 sequence (P55210 24-198 limits assumed): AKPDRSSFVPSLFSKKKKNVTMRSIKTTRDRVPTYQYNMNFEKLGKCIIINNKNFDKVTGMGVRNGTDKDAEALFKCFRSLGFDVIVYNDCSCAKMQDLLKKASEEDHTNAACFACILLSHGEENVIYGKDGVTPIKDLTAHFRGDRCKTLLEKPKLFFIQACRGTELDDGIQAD
Procedure: (§3) The inhibitory activity of Cbz-Val-Asp-CH2F in recombinant caspase 3, 6, 7 and 8 obtained from PharMington (a Becton division company, San Diego, Calif.) were measured using Ac-DEVD-AMC (SEQ ID NO:1). The amount of each enzyme per assay was as following: 1 ng caspase3, 15 ng caspase6, 2 ng caspase7 and 60 ng caspase8. The enzyme reaction was conducted in 96-well plate using a caspase buffer (20 mM PIPES, 100 mM NaCl, 10 mM DTT, 1 mM EDTA, 0.1% CHAPS and 10% sucrose, pH 7.2) and the reaction was initiated by adding 10 μM Ac-DEVD-AMC (SEQ ID NO:1) (purchased from Quality Controlled Biochemicals, Inc. Hopkinton, Mass.). Twelve concentrations of Cbz-Val-Asp-CH2F ranged from 30 μM to […] were tested after incubation of the compound with recombinant caspases for 30 minutes at 37° C. […] The data was analyzed using GraphPrism software.

[7] = target: T5, Caspase-8 (Homo sapiens, UniProt Q14790); test: Recombinant caspase assay with Ac-DEVD-AMC, caspase-8; format: biochemical; settings: 10 μM Ac-DEVD-AMC, 30 minutes at 37° C.
T5 construct: purchased PharMington (PharMingen, a Becton division company, San Diego, Calif.)
T5 sequence (Q14790 217-374 limits assumed): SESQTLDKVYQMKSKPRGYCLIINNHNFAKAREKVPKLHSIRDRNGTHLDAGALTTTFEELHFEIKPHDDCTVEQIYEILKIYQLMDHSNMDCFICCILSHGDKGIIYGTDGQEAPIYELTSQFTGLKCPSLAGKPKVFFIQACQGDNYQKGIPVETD
Procedure: as §3

[8] = test system: DNA laddering in Jurkat cells; test: DNA laddering in antiFas-treated Jurkat cells; format: cell-based, human; settings: antiFas 100 ng/mL for 4 hours
Excerpt: In the later stages of apoptosis, cells begin to literally fall apart as pieces of the cytoplasm are shed (through blebbing) and the nucleus is disassembled. One of the hallmarks of nuclear disassembly is the cleavage of genomic DNA into nucleosome-sized fragments (termed “DNA laddering”). DNA laddering, like other late stage apoptotic events, is considered to be irreversible, so it is important to determine whether an anti-apoptotic drug can prevent its occurrence.
The ability of Z-VD-fmk to block DNA laddering was tested using antiFas-treated Jurkat cells. Jurkat cells were plated in 60 mm dishes at a density of 5×10^6 cells and pre-incubated with varying concentrations of Z-VD-fmk. They were then challenged with antiFas at 100 ng/mL for 4 hours, harvested, and pelleted and washed with PBS twice. Genomic DNA was isolated using the method of Eldadah et al. (1996). Briefly, the cells were lysed in 2 mL of 7M guanidine HCl and mixed with 1 mL of Wizard miniprep DNA purification resin (Promega). The resin/DNA complex was washed twice with buffer and the DNA was eluted in TE. 1 to 2 μg of this DNA sample was electrophoresed on a 1% agarose/TBE gel and the gel was stained with ethidium bromide.
Vehicle treated cells which were challenged with antiFas show a characteristic laddering pattern of DNA extending down to about 300 bp. […]

COC(=O)CC(NC(=O)C(NC(=O)OCc1ccccc1)C(C)C)C(=O)CF (stereo not drawn) [Cbz-Val-Asp(OMe)-CH2F, Z-Val-Asp-fmk Methyl Ester]
IC50 [1]: 1100 nM | IC50 [2]: 900 nM | IC50 [3]: 300 nM | IC50 [4]: > 100000 nM | IC50 [5]: > 100000 nM

CC(C)[C@H](NC(=O)OCc1ccccc1)C(=O)NC(CC(=O)O)C(=O)CF (stereo partly drawn) [Cbz-Val-Asp-CH2F, Z-Val-Asp-fmk]
IC50 [1]: 43 nM | IC50 [2]: 20 nM | IC50 [3]: > 10000 nM | IC50 [4]: > 100000 nM | IC50 [5]: > 100000 nM | IC50 [6]: 6.8 nM | IC50 [7]: 7.2 nM | dose inhibiting DNA ladder formation [8]: ≤ 50 nM

Reference: patent publication US6949516B2, “Dipeptide apoptosis inhibitors and the use thereof” (Cytovia, Inc., priority 1997, dated 2005)
